Source: US9833497B2, “Human originated EGF domain proteins and use of the same” (CHENGDU SOURCEBIO LIMITED-LIABILITY COMPANY, priority 2013, dated 2017)

Experiments:
Assay type in all cases: cell-based
E. coli DH5α = assay: Antibacterial activity: MIC and growth curve against E. coli DH5α in 96-well plate; conditions: minimal inhibitory concentration against E. coli DH5α; 96-well plate, 5×10^5 CFU/mL, 37° C., judged after 8 h
In short: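 Log-phase DH5α (OD600 about 0.5, 37° C, 185 rpm in LB) was pelleted, resuspended in fresh LB and seeded at 5×10^5 CFU/mL with recombinant protein at 50, 25 and 12.5 μg/mL (two-fold series), in triplicate. Plates were shaken at 175 rpm, 37° C, and OD600 was read every 30 min. MIC was the lowest concentration with no growth.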

E. coli BL21 = assay: MIC against Gram-negative bacteria: E. coli BL21; conditions: 96-well plate, 5×10^5 CFU/mL, 37° C., 10 h
In short: (§1)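 Bacteria grown in LB at 37° C to McFarland 0.5, resuspended and seeded at 5×10^5 CFU/mL in 96-well plates. Purified human EGF-domain proteins two-fold serially diluted, triplicate wells; cultured at 37° C, shaking 175 rpm. MIC = lowest protein concentration with no growth.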

Pseudomonas aeruginosa = assay: MIC against Gram-negative bacteria: Pseudomonas aeruginosa; conditions: 96-well plate, 5×10^5 CFU/mL, 37° C., 10 h
In short: as §1

Klebsiella pneumonia = assay: MIC against Gram-negative bacteria: Klebsiella pneumonia; conditions: 96-well plate, 5×10^5 CFU/mL, 37° C., 10 h
In short: as §1

Enterobacter cloacae = assay: MIC against Gram-negative bacteria: Enterobacter cloacae; conditions: 96-well plate, 5×10^5 CFU/mL, 37° C., 10 h
In short: as §1

Aeromonas hydrophila = assay: MIC against Gram-negative bacteria: Aeromonas hydrophila; conditions: 96-well plate, 5×10^5 CFU/mL, 37° C., 10 h
In short: as §1

Citrobacter diversus = assay: MIC against Gram-negative bacteria: Citrobacter diversus; conditions: 96-well plate, 5×10^5 CFU/mL, 37° C., 10 h
In short: as §1

Moraxella catarrhalis = assay: MIC against Gram-negative bacteria: Moraxella catarrhalis; conditions: 96-well plate, 5×10^5 CFU/mL, 37° C., 10 h
In short: as §1

Proteus mirabilis = assay: MIC against Gram-negative bacteria: Proteus mirabilis; conditions: 96-well plate, 5×10^5 CFU/mL, 37° C., 10 h
In short: as §1

Proteus vulgaris = assay: MIC against Gram-negative bacteria: Proteus vulgaris; conditions: 96-well plate, 5×10^5 CFU/mL, 37° C., 10 h
In short: as §1

Serratia marcescens = assay: MIC against Gram-negative bacteria: Serratia marcescens; conditions: 96-well plate, 5×10^5 CFU/mL, 37° C., 10 h
In short: as §1

## PRT106 (RSVCDLFPSYCHNGGQCYLVENIGAFCRCNTQDYIWHKGMRCE; listed as Homo sapiens)
E. coli DH5α
  MIC: 12.5 µg/mL
E. coli BL21; E. coli BL21
  MIC (μg/mL) E. coli BL21: 50 µg/mL
Pseudomonas aeruginosa; Pseudomonas aeruginosa
  MIC (μg/mL) P. aeruginosa: 12.5 µg/mL
Klebsiella pneumonia; Klebsiella pneumonia
  MIC (μg/mL) K. pneumonia: 50 µg/mL
Enterobacter cloacae; Enterobacter cloacae
  MIC (μg/mL) E. cloacae: 25 µg/mL
Aeromonas hydrophila; Aeromonas hydrophila
  MIC (μg/mL) A. hydrophila: 12.5 µg/mL
Citrobacter diversus; Citrobacter diversus
  MIC (μg/mL) C. diversus: 25 µg/mL
Moraxella catarrhalis; Moraxella catarrhalis
  MIC (μg/mL) M. catarrhalis: 12.5 µg/mL
Proteus mirabilis; Proteus mirabilis
  MIC (μg/mL) P. mirabilis: 12.5 µg/mL
Proteus vulgaris; Proteus vulgaris
  MIC (μg/mL) P. vulgaris: 12.5 µg/mL
Serratia marcescens; Serratia marcescens
  MIC (μg/mL) S. marcescens: 12.5 µg/mL

## PRT1317 (APNPCWPSPCSLLAQCSVSPKGQAQCHCPENYHGDGMVCL; listed as Homo sapiens)
E. coli DH5α
  MIC: 50 µg/mL
E. coli BL21; E. coli BL21
  MIC against E. coli BL21: 12.5 µg/mL
Pseudomonas aeruginosa; Pseudomonas aeruginosa
  MIC against P. aeruginosa: 50 µg/mL
Klebsiella pneumonia; Klebsiella pneumonia
  MIC against K. pneumonia: 25 µg/mL
Enterobacter cloacae; Enterobacter cloacae
  MIC against E. cloacae: 12.5 µg/mL
Aeromonas hydrophila; Aeromonas hydrophila
  MIC against A. hydrophila: 25 µg/mL
Citrobacter diversus; Citrobacter diversus
  MIC against C. diversus: 50 µg/mL
Moraxella catarrhalis; Moraxella catarrhalis
  MIC against M. catarrhalis: 25 µg/mL
Proteus mirabilis; Proteus mirabilis
  MIC against P. mirabilis: 12.5 µg/mL
Proteus vulgaris; Proteus vulgaris
  MIC against P. vulgaris: 50 µg/mL
Serratia marcescens; Serratia marcescens
  MIC against S. marcescens: 12.5 µg/mL

## PRT635 (DINECLEDKSVCQRGDCINTAGSYDCTCPDGFQLDDNKTCQ; listed as Homo sapiens)
E. coli DH5α
  MIC: 12.5 µg/mL
E. coli BL21
  MIC E. coli BL21: 25 µg/mL
Pseudomonas aeruginosa
  MIC P. aeruginosa: 12.5 µg/mL
Klebsiella pneumonia
  MIC K. pneumonia: 25 µg/mL
Enterobacter cloacae
  MIC E. cloacae: 12.5 µg/mL
Aeromonas hydrophila
  MIC A. hydrophila: 25 µg/mL
Citrobacter diversus
  MIC C. diversus: 12.5 µg/mL
Moraxella catarrhalis
  MIC M. catarrhalis: 12.5 µg/mL
Proteus mirabilis
  MIC P. mirabilis: 25 µg/mL
Proteus vulgaris
  MIC P. vulgaris: 12.5 µg/mL
Serratia marcescens
  MIC S. marcescens: 25 µg/mL

## PRT1216 (YPDACKRSPCQHGGSCTGLPSGGYQCTCLSQFTGRNCE; listed as Homo sapiens)
E. coli DH5α
  MIC: 50 µg/mL
E. coli BL21; E. coli BL21
  MIC against E. coli BL21: 12.5 µg/mL
Pseudomonas aeruginosa; Pseudomonas aeruginosa
  MIC against P. aeruginosa: 50 µg/mL
Klebsiella pneumonia; Klebsiella pneumonia
  MIC against K. pneumonia: 12.5 µg/mL
Enterobacter cloacae; Enterobacter cloacae
  MIC against E. cloacae: 25 µg/mL
Aeromonas hydrophila; Aeromonas hydrophila
  MIC against A. hydrophila: 25 µg/mL
Citrobacter diversus; Citrobacter diversus
  MIC against C. diversus: 50 µg/mL
Moraxella catarrhalis; Moraxella catarrhalis
  MIC against M. catarrhalis: 12.5 µg/mL
Proteus mirabilis; Proteus mirabilis
  MIC against P. mirabilis: 50 µg/mL
Proteus vulgaris; Proteus vulgaris
  MIC against P. vulgaris: 25 µg/mL
Serratia marcescens; Serratia marcescens
  MIC against S. marcescens: 12.5 µg/mL

## PRT663 (DVNECDDLNGPAVLCVHGYCENTEGSYRCHCSPGYVAEAGPPHCT; listed as Homo sapiens)
E. coli DH5α
  MIC: 100 µg/mL
E. coli BL21
  MIC E. coli BL21: 25 µg/mL
Pseudomonas aeruginosa
  MIC P. aeruginosa: 50 µg/mL
Klebsiella pneumonia
  MIC K. pneumonia: 25 µg/mL
Enterobacter cloacae
  MIC E. cloacae: 12.5 µg/mL
Aeromonas hydrophila
  MIC A. hydrophila: 25 µg/mL
Citrobacter diversus
  MIC C. diversus: 50 µg/mL
Moraxella catarrhalis
  MIC M. catarrhalis: 12.5 µg/mL
Proteus mirabilis
  MIC P. mirabilis: 25 µg/mL
Proteus vulgaris
  MIC P. vulgaris: 50 µg/mL
Serratia marcescens
  MIC S. marcescens: 12.5 µg/mL

## PRT562 (CQCHNNIDTTDPEACDKETGRCLKCLYHTEGEHCQFCRFGYYGDALQQDCRK; listed as Homo sapiens)
E. coli DH5α
  MIC: 50 µg/mL
E. coli BL21
  MIC against E. coli BL21: 25 µg/mL
Pseudomonas aeruginosa
  MIC against P. aeruginosa: 50 µg/mL
Klebsiella pneumonia
  MIC against K. pneumonia: 25 µg/mL
Enterobacter cloacae
  MIC against E. cloacae: 50 µg/mL
Aeromonas hydrophila
  MIC against A. hydrophila: 25 µg/mL
Citrobacter diversus
  MIC against C. diversus: 50 µg/mL
Moraxella catarrhalis
  MIC against M. catarrhalis: 25 µg/mL
Proteus mirabilis
  MIC against P. mirabilis: 12.5 µg/mL
Proteus vulgaris
  MIC against P. vulgaris: 25 µg/mL
Serratia marcescens
  MIC against S. marcescens: 50 µg/mL

## PRT100 (DVNECTSGQNPCHSSTHCLNNVGSYQCRCRPGWQPIPGSPNGPNNTVCE; listed as Homo sapiens)
E. coli DH5α
  MIC: 12.5 µg/mL
E. coli BL21; E. coli BL21
  MIC (μg/mL) E. coli BL21: 12.5 µg/mL
Pseudomonas aeruginosa; Pseudomonas aeruginosa
  MIC (μg/mL) P. aeruginosa: 12.5 µg/mL
Klebsiella pneumonia; Klebsiella pneumonia
  MIC (μg/mL) K. pneumonia: 12.5 µg/mL
Enterobacter cloacae; Enterobacter cloacae
  MIC (μg/mL) E. cloacae: 12.5 µg/mL
Aeromonas hydrophila; Aeromonas hydrophila
  MIC (μg/mL) A. hydrophila: 12.5 µg/mL
Citrobacter diversus; Citrobacter diversus
  MIC (μg/mL) C. diversus: 12.5 µg/mL
Moraxella catarrhalis; Moraxella catarrhalis
  MIC (μg/mL) M. catarrhalis: 12.5 µg/mL
Proteus mirabilis; Proteus mirabilis
  MIC (μg/mL) P. mirabilis: 12.5 µg/mL
Proteus vulgaris; Proteus vulgaris
  MIC (μg/mL) P. vulgaris: 25 µg/mL
Serratia marcescens; Serratia marcescens
  MIC (μg/mL) S. marcescens: 12.5 µg/mL
